Test system: A/Puerto Rico/8/34 H274Y (H1N1)
Format: cell-based, Influenza A virus

For `CCCCCc1cc(=O)c2c(CC(=O)OC)cc(O)cc2o1` [Compound 14, pestalotiopsone F], the IC50 was 21800 ± 7960 nM.

5-chloroisorotiorin showed an IC50 of 2520 ± 210 nM.

`CCCCCCCc1cc(=O)c2c(CC(=O)OCC)cc(O)cc2o1` [Compound 15, pestalotiopsone B] gave an IC50 of 2560 ± 320 nM.
